{
  "source": "patent US20130005747A1",
  "about": "“METHOD FOR SELECTING A CANCER THERAPY” (Cyclacel Limited, priority 2010, published 2013)",
  "key": {"[1]": {"tested_on": "nasopharyngeal cancer (NPC)", "assay": "Clinical study of seliciclib in previously treated advanced solid tumors enriched for NPC", "format": "in vivo, human", "method": "The incidence of nasopharyngeal cancer (NPC) varies, with higher rates in southern Asia, intermediate rates in Mediterranean basin countries as well as in Greenland and Alaska populations, and low rates in most of the western countries (Chang et al 2006 Cancer Epidemiol. Biomarkers Prev. v15 p 1765). A clinical study of R-roscovitine (seliciclib) in patients with previously treated advanced solid tumors that was heavily enriched for NPC patients was performed. […] Patients were also evaluated for overall survival, response rate, response duration, safety, and tolerability.\nA total of 23 patients were enrolled on the study (11 at 400 mg bid and 12 at 800 mg qd.).\nThis patient was […] and thus not from one of the patient populations where NPC is more prevalent. K-Ras mutations are extremely rare in NPC patients. A biopsy sample from this patient was analysed for K-Ras mutational status. DNA was extracted from a paraffin embedded tumor sample and analysed for a total of 12 different mutations in Gly12 and Gly13 which represent the most common K-Ras activating mutations. Analysis was performed using a standard PCR-RFLP methodology as has been reported previously (Hatzaki et al 2001 Molecular and Cellular Probes; v15, 243) which identified a K-Ras activating mutation at Gly12 in the tumor sample.\nThis was a longer period of clinical benefit than achieved with four previous therapies."}, "[2]": {"tested_on": "HOP-62 human lung cancer cell line", "assay": "Growth inhibition of lung cancer cells (FIG. 6)", "format": "cell-based", "conditions": "for growth inhibition / sensitivity (in words): 72 hours post-treatments", "from_the_text": "(§1) Thus, findings from this large panel of cancer cell lines indicated significant roscovitine sensitivity well beyond those human and murine lung cancer cells already investigated. For lung cancer cells, this response is tightly associated with the presence of ras activation in highly responsive cells."}, "[3]": {"tested_on": "H-23 human lung cancer cell line", "assay": "Growth inhibition of lung cancer cells (FIG. 6)", "format": "cell-based", "conditions": "for growth inhibition / sensitivity (in words): 72 hours post-treatments", "from_the_text": "as §1"}, "[4]": {"tested_on": "H-522 human lung cancer cell line", "assay": "Growth inhibition of lung cancer cells (FIG. 6)", "format": "cell-based", "conditions": "for growth inhibition / sensitivity (in words): 72 hours post-treatments, wild-type ras", "from_the_text": "as §1"}, "[5]": {"tested_on": "C-10 murine immortalized pulmonary epithelial cells", "assay": "Growth inhibition of immortalized pulmonary epithelial cells (FIG. 6B)", "format": "cell-based"}, "[6]": {"tested_on": "270 human cancer cell lines", "assay": "Pharmacogenomic analysis of cancer cell lines, summary", "format": "cell-based", "conditions": "over half of investigated lung, pancreatic, head and neck, esophageal, liver, thyroid, ovarian, uterine, and skin cancer cell lines; 72 hours", "from_the_text": "A total of 270 human cancer cell lines from diverse cancer histopathologic types were investigated."}, "[7]": {"conditions": "seliciclib combined with docetaxel"}, "[8]": {"conditions": "seliciclib combined with paclitaxel"}},
  "note": "“Also recorded” adds a separate entry of the source.",
  "data": [
    {"smiles": "CC[C@H](CO)Nc1nc(NCc2ccccc2)c2ncn(C(C)C)c2n1", "note": "[seliciclib, roscovitine]", "values": [
      {"measurement": "disease response among the NPC patients", "setting": "[1]; a number of individuals, 400 mg bid or 800 mg qd", "value": "prolonged stable disease"},
      {"measurement": "duration of stable disease", "setting": "[1]; one NPC patient with K-Ras activating mutation at Gly12, schedule B, 800 mg once per day, four days every week", "value": "stable disease for over two years; also recorded: stable disease for greater than two years"},
      {"measurement": "tolerability", "setting": "[1]; patients, 400 mg bid and 800 mg qd, four consecutive days every week", "value": "well tolerated"},
      {"measurement": "growth inhibition / sensitivity (in words)", "setting": "[2]; listed as Seliciclib", "value": "dose-dependent growth inhibition"},
      {"measurement": "growth inhibition / sensitivity (in words)", "setting": "[2]; listed as roscovitine", "value": "more sensitive to roscovitine that H-522 lung cancer cells"},
      {"measurement": "proliferation, combined treatment (in words)", "setting": "[2]; [7]", "value": "cooperatively inhibited proliferation"},
      {"measurement": "proliferation, combined treatment (in words)", "setting": "[2]; [8]", "value": "cooperatively inhibited proliferation"},
      {"measurement": "growth inhibition / sensitivity (in words)", "setting": "[3]; listed as Seliciclib", "value": "dose-dependent growth inhibition"},
      {"measurement": "growth inhibition / sensitivity (in words)", "setting": "[3]; listed as roscovitine", "value": "more sensitive to roscovitine that H-522 lung cancer cells"},
      {"measurement": "proliferation, combined treatment (in words)", "setting": "[3]; [7]", "value": "cooperatively inhibited proliferation"},
      {"measurement": "proliferation, combined treatment (in words)", "setting": "[3]; [8]", "value": "cooperatively inhibited proliferation"},
      {"measurement": "growth inhibition / sensitivity (in words)", "setting": "[4]; listed as Seliciclib", "value": "dose-dependent growth inhibition"},
      {"measurement": "growth inhibition / sensitivity (in words)", "setting": "[4]; listed as roscovitine", "value": "less sensitive than others examined"},
      {"measurement": "proliferation, combined treatment (in words)", "setting": "[4]; [7]", "value": "cooperatively inhibited proliferation"},
      {"measurement": "proliferation, combined treatment (in words)", "setting": "[4]; [8]", "value": "cooperatively inhibited proliferation"},
      {"measurement": "growth inhibition (in words)", "setting": "[5]", "value": "Dose-dependent growth inhibition"},
      {"measurement": "growth inhibition compared with vehicle treated cells", "setting": "[6]", "value": "at least 50%"}
    ]}
  ]
}
